# Results from patent US20240133884A1, “COMPOSITIONS AND METHODS FOR DETECTING TRYPANOSOMA CRUZI INFECTION” (University of Georgia Research Foundation, Inc., priority 2022, published 2024).
# Legend:
# T. cruzi [1] = details: T. cruzi-infected NHPs; cited from earlier work
# T. cruzi [2] = assay: BNZ prophylaxis / treatment in kennel dogs (multiplex serology, blood PCR); assay type: in vivo, Trypanosoma cruzi; details: for impact of prophylaxis on new infections: high intensity transmission setting
# Source text: For studies in dogs, a small network of kennels was formed in central and south Texas with a history of triatomine vector occurrence and canine Chagas disease with owners who were willing to participate in the study. Kennels are identified through (i) canine patients with Chagas disease presenting to the cardiology unit at the TAMU VMTH and (ii) the TAMU Kissing Bug Community Science program, in which many dog owners submit triatomines collected from large kennel environments. At these large kennels, dogs are primarily bred and trained to aid hunting parties. Approximately 40-80 dogs reside within each kennel, and the predominant breeds include Belgian Malinois, Brittany spaniels, English pointers, German shorthaired pointers, Labrador retrievers, and hound dogs. Dogs >3 months of age, including males and females, were eligible for enrollment. Dogs identified after blood screening as seronegative based on multiplex serology and PCR-negative were randomly assigned to treatment groups. Neither the investigators, private veterinarian providing care to the dogs in the field, nor the dog owners were blinded to the treatment groups and no placebo was given to control dogs. Informed consent was obtained from dog owners prior to their participation, and this study was approved by the Texas A&M University Institutional Committee on Animal Use and Care and the Clinical Research Review Committee.
# The limit of detection was set at the lowest standard of 0.0017 parasite equivalents per 50 ng of DNA. For detection of T. cruzi infection in dogs, DNA was extracted from 250 uL of the buffy coat fraction of EDTA-treated blood using the E.Z.N.A Tissue DNA kit (Omega Bio-Tek, Norcross, GA, USA) according to the manufacturer's protocol except 50 μL of elution buffer was used. T. cruzi-negative controls (phosphate buffered saline) were included in the DNA extractions. Samples were tested using qPCR for the presence of T. cruzi satellite DNA using the Cruzi 1/2 primer set and Cruzi 3 probe in a real-time assay, which amplifies a 166-bp segment of a repetitive nuclear DNA (Piron, et al., Acta tropica. 103(3):195-200 (2007), Cummings & Tarleton, Molecular and biochemical parasitology 129(1):53-9 (2003)) as previously described (Meyers, et al., PLoS neglected tropical diseases 11(8) 2017)). A sample was considered T. cruzi-positive if the Ct value was <35 (Curtis-Robles, et al., Vet Parasitol Reg Stud Reports 12:85-8 (2018)).
# The 67 animals considered infection-negative were randomly assigned to either a control (no therapy) or a prophylactic group, which received twice weekly doses of BNZ at a level of not less than 10 mg/kg. This dosage is approximately the normal daily dose previously used (mostly ineffectively) to attempt drug-cure in dogs (Guedes, et al., Acta tropica. 84(1):9-17 (2002), Santos, et al., The Journal of antimicrobial chemotherapy. 67(8):1987-95 (2012), Cunha, et al., Experimental parasitology. 204:107711 (2019)). Dogs in these groups were then re-sampled 10-12 weeks (considered the midpoint of the transmission season) and ˜24 weeks (end of season).
# [3] = test system: T. cruzi (Colombiana strain); assay: BNZ prophylaxis in mice (bioluminescence imaging, T-cell phenotyping, tissue qPCR); assay type: in vivo, Trypanosoma cruzi; details: for luciferase signal: 100 mg/kg twice weekly
# Procedure: For the studies in mice, female mice, 8-12 weeks old were used for infections throughout the study. Sample sizes were determined based upon knowledge of heterogeneity in parasite burden during T. cruzi infection and published reports using similar experimental strategies. Data collected were included if productive T. cruzi infection was established (visualized by luciferase imaging or flow cytometry by detection of T. cruzi-tetramer specific CD8^+ T cells). The investigators were not blinded during the collection or analysis of data and mice were randomly assigned to treatment groups prior to the start of each experiment.
# C57BL/6J (Stock No:000664) mice (C57BL/6 wild-type) were purchased from The Jackson Laboratory (Bar Harbor, ME) and C57BL/6J-IFN-gamma knockout mice (also known as B6.129S7-Ifngtm1 Ts/J; The Jackson Laboratory stock No 002287) were bred in-house at the University of Georgia Animal Facility. All the animals were maintained in the University of Georgia Animal Facility under specific pathogen-free conditions. T. cruzi tissue culture trypomastigotes of the Colombiana strain co-expressing firefly luciferase and tdTomato reporter proteins, generated as described previously (Sanchez-Valdez, et al., eLife 7 (2018), Bustamante, et al., Sci Transl Med. 12(567) 2020)), were maintained through passage in Vero cells (American Type Culture Collection (Manassas, VA)) cultured in RPMI 1640 medium with 10% fetal bovine serum at 37° C. in an atmosphere of 5% CO2. Mice were infected intraperitoneally with 10^3 tissue culture trypomastigotes of T. cruzi. This study was carried out in strict accordance with the Public Health Service Policy on Humane Care and Use of Laboratory Animals and Association for Assessment and Accreditation of Laboratory Animal Care accreditation guidelines. The protocol was approved by the University of Georgia Institutional Animal Care and Use Committee.
# Mice were treated with benznidazole twice weekly at a 100 mg/kg/day and infected midway during the 3rd week of treatment (FIG. 8A). Benznidazole (BNZ—Elea Phoenix, Buenos Aires, Argentina) was prepared by pulverization of tablets followed by suspension in an aqueous solution of 1% sodium carboxymethylcellulose with 0.1% Tween 80 and delivered orally by gavage at a concentration dosage of 100 mg/kg of body weight. Each mouse received 0.2 ml of this suspension. Luciferase-expressing parasites were quantified in mice by bioluminescent detection. Mice were injected intraperitoneally with D-luciferin (150 mg/kg; PerkinElmer, Waltham, MA) and anesthetized using 2.5% (vol/vol) gaseous isofluorane in oxygen prior to imaging on an IVIS Lumina II imager (Xenogen, Alameda, CA) for an exposure time of 5 minutes, as previously described (Canavaci, et al., PLoS neglected tropical diseases 4(7):e740 (2010)). Quantification of bioluminescence and data analysis was performed using Aura Imaging Software version 4.0.7 (Spectral Instruments Imaging, Tucson, AZ).
# Whole blood was incubated with a major histocompatibility complex I (MHC I) tetramer containing the T. cruzi transialidase TSKB20 peptide (ANYKFTLV (SEQ ID NO:124)/Kb) labeled with BV421 (Tetramer Core Facility at Emory University, Atlanta, GA) and the following labeled antibodies: anti-CD8 FITC, anti-CD4 APC EF780, anti-CD127 PE (BD Bioscience, San Jose, CA). At least 500,000 cells were acquired using a CyAn ADP flow cytometer (Beckman Coulter, Hialeah, Florida) and analyzed with FlowJo software v10.6.1 (Treestar, Inc., Ashland, OR).
# […]
# T. cruzi (Brazil strain) = details: cited from earlier work
# [4] = in vivo
# [5] = test system: T. cruzi intracellular amastigotes; assay: In vitro anti-T. cruzi amastigote growth inhibition assay (tdTomato fluorescence, 72 hours, Vero cells); assay type: cell-based, Trypanosoma cruzi; details: for in vitro activity against T. cruzi: in words
# Procedure: (§1) The in vitro anti-T. cruzi amastiogote activity assay was performed and optimized based on the protocol described previously (Canavaci, et al., PLoS neglected tropical diseases 4, e740 (2010)). The change in tdTomato fluorescence intensity was determined as a measurement of growth over 72 hours of culture. For assaying drug effects on extracellular amastigotes, trypomastigotes were collected from infected Vero cell cultures and converted in acidic media as previously described (Tomlinson, et al., Parasitology 110 (Pt 5), 547-554 (1995)). Amastigotes (50,000/well) were incubated with 2-fold serial dilutions of compounds for 48 hours. The ATP production was used as an indication of growth in this case, and was measured by ATPlite Luminescence ATP Detection Assay System (PerkinElmer). Both fluorescence and luminescence were read using a BioTek Synergy Hybrid Multi-Mode reader equipped with the software Gene5 v 2.0 (BioTek). The dose-response curve was generated by […] analysis with GraphPad Prism v9.4.0 (GraphPad Software). IC50 was determined as the drug concentration that was required to inhibit 50% of growth compared to that of parasites with no drug exposure.
# Standard Ames study = assay type: cell-based
# [6] = test system: mammalian enzymes, receptors and ion channels; assay: Safety pharmacology: affinity for a broad array of mammalian enzymes, receptors and ion channels; assay type: binding
# cytochrome P450 enzymes = assay: Inhibition of representative cytochrome P450 enzymes; assay type: in vitro ADME; details: 10 uM
# [7] = High dose 7-day toxicology studies in rats; assay type: in vivo; details: high dose 7-day toxicology studies, oral
# CPSF3 = details: T. b. brucei; cited from earlier work
# [8] = test system: T. cruzi extracellular amastigotes; assay: Extracellular amastigote assay (ATPlite ATP production, 48 hours); assay type: cell-based, Trypanosoma cruzi; details: relative to parent ester (FIG. 2A)
# Procedure: as §1
# [9] = dog BEHE4, 30 mg/kg twice a week, 24 week sample point
smiles,measurement,setting,value
O=C(Cn1ccnc1[N+](=O)[O-])NCc1ccccc1 [benznidazole],failures in treatment trials,T. cruzi [1],> 60%
same,blood PCR,T. cruzi [2]; [9],PCR negative
same,serology,T. cruzi [2]; [9],seronegative
same,impact of prophylaxis on new infections,T. cruzi [2]; dogs,no impact on the incidence of new infections
same,impact of prophylaxis on new infections,"T. cruzi [2]; dogs, listed as BNZ",no impact on the number of new infections
same,new infections,"T. cruzi [2]; dogs, prophylaxis group, twice weekly not less than 10 mg/kg",26.5%
same,mice systemically parasite-positive,"[3]; IFNγ KO mice, within 4 weeks of termination of prophylaxis",4 of 5
same,overall effect of prophylaxis regimen,[3]; WT mice,prevented or truncated an infection in most cases
same,luciferase signal,"[3]; WT mice, day 14 post-exposure or beyond",none of the mice in the BNZ-treated WT group had a detectable luciferase signal above background
same,"mice negative for T. cruzi DNA (qPCR of skeletal muscle, heart, gut)","[3]; WT mice, week 33",at least 3 of the 5
same,fraction of CD127+ cells in the TSKb20-specific CD8+ T cell population,"[3]; mice under prophylaxis vs no prophylaxis, through 21st week",substantially higher fraction of CD127+ cells
same,luciferase signal,"[3]; some IFNγ KO mice, day 14 post-exposure (not at 12 weeks)",low level signal
same,cure of established infections,"T. cruzi (Brazil strain); mice, weekly or twice weekly high dose (2.5-5× normal daily dose)",could cure established infections
same,generation of cure with 20 days of treatment,T. cruzi (Brazil strain); mice,only partially effective
O=C(Nc1ccc2c(c1)B(O)OC2)c1ccc(F)cc1C(F)(F)F [AN4169],therapeutic margin in rodent tolerability studies,[4],insufficient therapeutic margin
same,cure of mice,T. cruzi (Brazil strain); mice infected with T. cruzi Brazil strain,100%
Cc1c(C(=O)N[C@H](C(=O)OCc2ccc(S(C)(=O)=O)cc2)C(C)C)ccc2c1B(O)OC2 [AN14561],in vitro activity against T. cruzi,[5],significantly less potent
CC(C)[C@H](NC(=O)c1ccc2c(c1)B(O)OC2)C(=O)OCc1ccccc1 [AN10443],in vitro activity against T. cruzi,[5],submicromolar activity
same,metabolic stability in mouse S9 liver fraction assay,,good metabolic stability
Cc1c(C(=O)N[C@H](C(=O)OCc2ccc(F)cc2)C(C)(C)O)ccc2c1B(O)OC2 [AN14817],"genotoxicity, Ames",Standard Ames study,non-genotoxic
same,"affinity for a broad array of mammalian enzymes, receptors and ion channels",[6],little to no affinity
same,inhibition of representative cytochrome P450 enzymes,cytochrome P450 enzymes,did not demonstrate significant inhibition
same,dose proportionality of exposure,[7],non-dose proportional exposure
Cc1c(C(=O)N[C@H](C(=O)OCc2ccccc2)C(C)C)ccc2c1B(O)OC2 [AN11735],IC50,[5]; read-out: in vitro activity against T. cruzi (IC50),< 10 nM
Cc1c(C(=O)NC(C(=O)OCCN2CCOCC2)C(C)C)ccc2c1B(O)OC2 (centres unmarked) [AN15129],in vitro activity against T. cruzi,[5],less active than neutral compounds
Cc1c(C(=O)N[C@H](C(=O)OCc2ccc(F)cc2)C(C)C)ccc2c1B(O)OC2 [AN11736],effect of CPSF3 overexpression on killing,CPSF3,induced resistance to killing
Cc1c(C(=O)N[C@H](C(=O)O)C(C)C)ccc2c1B(O)OC2 [AN14667],reduced activity on intracellular amastigotes,[5]; relative to parent ester (FIG. 2A),~1000 fold
same,reduced activity on extracellular amastigotes,[8],~1000 fold
CC[C@@H]([C@H](C)O)n1ncn(-c2ccc(N3CCN(c4ccc(OC[C@@H]5CO[C@@](Cn6cncn6)(c6ccc(F)cc6F)C5)cc4)CC3)cc2)c1=O [posaconazole],failures in treatment trials,T. cruzi [1],100%
